Data: patent publication US8377989B2, “Room temperature stable non-crystalline aspirin and method for the preparation thereof” (priority 2007, dated 2013)

Legend:
[1] = 100 K (−173° C.) versus ambient conditions; cited from earlier work
[2] = Flow test: Petri dish with sample placed on edge; assay type: physicochemical; conditions: Example 3; Petri dish on edge for about six weeks
Source text: (§1) Subsequent tests with the protocol of Example 2 were repeated with the order of long and short wavelengths reversed, i.e., short wavelength followed by long wavelength cycled sequenced laser treatment. This protocol also produced up to 90 percent yields of room temperature stable non-crystalline glass aspirin, which remained stable at room temperature for over 23 months. The Petri dish containing such a sample of non-crystalline aspirin was placed on edge for a period of about six weeks.

[3] = Storage stability of the non-crystalline form at room temperature (appearance, PXRD); assay type: physicochemical; conditions: for time the non-crystalline glass form remained stable: room temperature
Source text: Within an hour of the evaporative desolvation process following the laser treatment, the system stabilized with 80 percent or more of the mass of the sample cured to a clear non-crystalline glass rather than a crystalline form.
After the 6 months of storage, the laser treated aspirin was studied by PXRD.
as §1

[4] = 298K; vitrified by melting and cooling or ball-milling; cited from earlier work

CC(=O)Oc1ccccc1C(=O)O [Aspirin Form II]
stability of the polymorphic form [1]: kinetically stable at 100 K (−173° C.), but converts back to Form I at ambient conditions

CC(=O)Oc1ccccc1C(=O)O [non-crystalline aspirin, acetylsalicylic acid]
flowing of the sample [2]: No flowing of the sample was observed | crystallization on further storage ([3]; Example 2, additional six months of storage after the first 6 months): No crystallization has been observed | storage period with no change in appearance of the sample ([3]; Example 2, room temperature of about 18° to 22° C., about 30 to 40 percent humidity): over 6 months | time remained stable at room temperature ([3]; Example 3, short wavelength followed by long wavelength laser treatment): over 23 months | time the non-crystalline glass form remained stable [3]: stable at room temperature once the solvent had evaporated | time the non-crystalline glass form remained stable ([3]; listed as glass aspirin): stable for up to about a year at room temperature | time the non-crystalline glass form remained stable ([3]; listed as non-crystalline glass form): stable at room temperature for at least up to about a year | time the non-crystalline form remained stable ([3]; temperature of about 20° to 30° C.): stable at a temperature of about 20° to 30 °C for at least about a year

CC(=O)Oc1ccccc1C(=O)O [vitreous aspirin]
stability against crystallization [4]: did not crystallize for four to five days
